Assay results published in ChEMBL document CHEMBL5537113, “Discovery of 1,2-diaryl-3-oxopyrazolidin-4-carboxamides as a new class of MurA enzyme inhibitors and characterization of their antibacterial activity” (Eur J Med Chem, 2023).
Activity calls are given as the source filed them. The rule behind the calls is not given here.

Assays:
Escherichia coli = test: Antibacterial activity against Escherichia coli harboring tolC deletion mutant assessed as reduction in microbial growth incubated for 16 hrs by serial dilution method; format: functional
[1] = molecular target: UDP-N-acetylglucosamine 1-carboxyvinyltransferase (Escherichia coli K-12) (UniProt P0A749); test: Inhibition of Escherichia coli K12 His-tagged MurA expressed in Escherichia coli BL21 cells at 50 uM using UNAG as substrate pre incubated for 15 mins followed by substrate addition and measured after 15 mins by microplate reader analysis relative to control; details: time 30.0 min
Sequence of UDP-N-acetylglucosamine 1-carboxyvinyltransferase (Escherichia coli K-12) (P0A749 whole entry): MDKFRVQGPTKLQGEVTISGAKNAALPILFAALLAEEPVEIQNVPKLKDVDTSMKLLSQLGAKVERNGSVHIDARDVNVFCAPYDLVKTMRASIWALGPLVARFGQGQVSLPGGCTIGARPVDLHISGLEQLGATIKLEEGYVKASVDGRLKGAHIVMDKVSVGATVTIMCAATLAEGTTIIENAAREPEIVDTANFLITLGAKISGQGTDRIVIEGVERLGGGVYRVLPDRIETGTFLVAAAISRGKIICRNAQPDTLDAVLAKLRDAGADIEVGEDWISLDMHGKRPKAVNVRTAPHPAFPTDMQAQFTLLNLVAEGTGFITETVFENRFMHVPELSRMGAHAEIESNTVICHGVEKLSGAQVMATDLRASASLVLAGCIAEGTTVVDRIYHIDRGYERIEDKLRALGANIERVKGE

Staphylococcus aureus = test: Antibacterial activity against Staphylococcus aureus Newman D2C NCTC 10833 assessed as reduction in microbial growth incubated for 16 hrs by serial dilution method; format: functional
[2] = molecular target: UDP-N-acetylglucosamine 1-carboxyvinyltransferase (Escherichia coli K-12, UniProt P0A749); test: Inhibition of Escherichia coli K12 His-tagged MurA expressed in Escherichia coli BL21 cells using UNAG as substrate pre incubated for 15 mins followed by substrate addition and measured after 15 mins by microplate reader analysis
Sequence of UDP-N-acetylglucosamine 1-carboxyvinyltransferase (P0A749 whole entry): as above

[3] = Drug uptake in Escherichia coli harboring tolC deletion mutant at 10 uM incubated for 30 mins by LC analysis; format: ADME; details: 0.5 h
[4] = Drug uptake in Escherichia coli harboring tolC deletion mutant assessed per 1.6x10^9 cells at 10 uM incubated for 30 mins by LC analysis; format: ADME; details: 0.5 h

| SMILES | MIC (Escherichia coli) [µM] | inhibition [1] | MIC (Staphylococcus aureus) [µM] | IC50 [2] [µM] | Drug uptake [3] [nM] | Drug uptake [4] [µM] |
| --- | --- | --- | --- | --- | --- | --- |
| CN1C(=O)C(C(=O)NC2CCSC2=O)CN1c1cccc(Cl)c1 (configuration not stated) | > 40 | inactive | > 40 | – | – | – |
| O=C(Nc1nc2ccccc2s1)C1CN(c2cccc(Cl)c2)N(c2cccc(Cl)c2)C1=O (configuration not stated) | > 40 | 65.2% | > 40 | 18 | 573 | 19 |
| O=C(NCc1ccccn1)C1CN(c2cccc(Cl)c2)N(c2cccc(Cl)c2)C1=O (configuration not stated) | > 40 | inactive | > 40 | – | – | – |
| O=C(NCc1cccnc1)C1CN(c2cccc(Cl)c2)N(c2cccc(Cl)c2)C1=O (configuration not stated) | > 40 | 11.8% | > 40 | – | – | – |
| O=C(Nc1ccc2[nH]ncc2c1)C1CN(c2cccc(Cl)c2)N(c2cccc(Cl)c2)C1=O (configuration not stated) | 23 | 59.5% | > 40 | 44.1 | – | – |
| O=C(Nc1nc(C(F)(F)F)cs1)C1CN(c2cccc(Cl)c2)N(c2cccc(Cl)c2)C1=O (configuration not stated) | > 40 | 59.2% | 40 | 38.6 | – | – |
| O=C(Nc1ncc(Cl)s1)C1CN(c2cccc(Cl)c2)N(c2cccc(Cl)c2)C1=O (configuration not stated) | > 40 | 67.7% | > 40 | 24 | – | – |
